According to patent publication US20240246941A1, “SUBSTITUTED 4-(3-AMINOPROP-1-YL)AMINOQUINOLINE ANALOGS AS MODULATORS OF MELANOMA-ASSOCIATED ANTIGEN 11 UBIQUITIN LIGASE” (ST. JUDE CHILDREN'S RESEARCH HOSPITAL, INC., priority 2020, published 2024):
Read-outs that look alike come from different tables or passages of the source.

Target: interaction between GST-MAGEA11 MHD and FAM-PCF11_4 peptide (MAGE-A11:PCF11) (Homo sapiens (Human), UniProt P43364)
Experiment: TR-FRET dose response competition assay for disruption of MAGE-A11:PCF11 binding
Procedure, shortened: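 Competition TR-FRET at room temperature in 50 mM Tris pH 7.5, 20 mM MgCl2, 0.1 mg/ml BSA, 1 mM DTT: final 5 nM GST-MAGEA11 MHD, 5 nM Tb-anti-GST, 200 nM FAM-PCF11_4, 90 min. Ratio 520/490 nm converted to % inhibition; IC50 from sigmoidal fit.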

[1] = Dose response TR-FRET screening of nine scaffold groups against MAGE-A11:PCF11, read-out: consensus IC50
[2] = Table 8, representative compounds, read-out: TR-FRET IC50
[3] = Table 5, dose response TR-FRET screening of 59 quinoline compounds against MAGE-A11:PCF11, read-out: TR-FRET IC50

interaction between GST-MAGEA11 MHD and FAM-PCF11_4 peptide (MAGE-A11:PCF11), sequence (P43364 218-429): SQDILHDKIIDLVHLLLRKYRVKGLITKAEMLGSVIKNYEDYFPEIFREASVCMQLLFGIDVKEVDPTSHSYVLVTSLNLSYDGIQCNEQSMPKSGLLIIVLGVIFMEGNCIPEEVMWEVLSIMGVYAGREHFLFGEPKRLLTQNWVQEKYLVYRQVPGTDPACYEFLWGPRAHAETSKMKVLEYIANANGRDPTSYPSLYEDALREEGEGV

Row | Compound | IC50 [1] [µM] | further results
1 | O=C1C(Cl)=C(NCCN2CCOCC2)C(=O)c2ncccc21 [SJ000312204-6] | 2.25 | –
2 | CCc1c2c(nc3ccc(OC(=O)N4CCC(N5CCCCC5)CC4)cc13)-c1cc3c(c(=O)n1C2)COC(=O)[C@]3(O)CC [SJ000312345] | – | IC50 [2]: > 58.7 µM
3 | Cc1ccccc1-c1nc(S(=O)(=O)c2ccc(F)cc2)c(N2CC(C)OC(C)C2)o1 (stereo not drawn) [SJ000329031-1] | 69.9 | –
4 | Cc1ccc(S(=O)(=O)c2nc(-c3ccccc3C)oc2N2CC(C)OC(C)C2)cc1 (stereo not drawn) [SJ000329041-1] | 11.8 | –
5 | Cc1ccccc1-c1nc(S(=O)(=O)c2ccc(Cl)cc2)c(N2CC(C)OC(C)C2)o1 (stereo not drawn) [SJ000329051-1] | 69.9 | –
6 | Cc1ccc(S(=O)(=O)c2nc(-c3ccccc3Cl)oc2N2CC(C)OC(C)C2)cc1 (stereo not drawn) [SJ000329066-1] | 13 | –
7 | CC1CN(c2oc(-c3ccccc3F)nc2S(=O)(=O)c2ccc(F)cc2)CC(C)O1 (stereo not drawn) [SJ000329067-1] | 27.3 | –
8 | Oc1c(F)cc(F)cc1CN(CCCCNc1ccnc2cc(Cl)ccc12)Cc1ccccc1 [SJ000357506-2] | – | IC50 [3]: > 70 µM
9 | CC(C)(C)CCN(CCCCNc1ccnc2cc(Cl)ccc12)Cc1ccccc1 [SJ000357537-2] | – | IC50 [3]: > 70 µM
10 | Clc1ccc2c(NCCCNCc3ccccc3)ccnc2c1 [SJ000361100-1] | 69.9 | –
11 | Clc1ccc2c(NCCCNCc3ccccc3)ccnc2c1 [SJ000361100] | – | IC50 [2]: 69.9 µM
12 | FC(F)(F)c1ccc2c(NCCCNCc3ccc[nH]3)ccnc2c1 [SJ000361105-1] | – | IC50 [3]: 33 µM
13 | FC(F)(F)c1ccc2c(NCCCNCc3ccc4c(c3)OCO4)ccnc2c1 [SJ000361106-1] | 69.9 | –
14 | FC(F)(F)c1ccc2c(NCCCNCc3ccccc3)ccnc2c1 [SJ000361107-1] | 69.9 | –
15 | FC(F)(F)c1ccc2c(NCCCNCc3ccccc3)ccnc2c1 [SJ000361107] | – | IC50 [2]: 69.9 µM
16 | Clc1ccc2c(NCCCNCc3c4ccccc4cc4ccccc34)ccnc2c1 [SJ000361122-2] | 69.9 | –
17 | Clc1ccc2c(NCCCNCc3c4ccccc4cc4ccccc34)ccnc2c1 [SJ000361122] | – | IC50 [2]: 69.9 µM
18 | CCCCCCNCCCNc1ccnc2cc(C(F)(F)F)ccc12 [SJ000361124-1] | – | IC50 [3]: 57.6 µM
19 | FC(F)(F)c1ccc2c(NCCCNCc3c4ccccc4cc4ccccc34)ccnc2c1 [SJ000361126-1] | 69.9 | –
20 | FC(F)(F)c1ccc2c(NCCCNCc3c4ccccc4cc4ccccc34)ccnc2c1 [SJ000361126] | – | IC50 [2]: 69.9 µM

Row | Compound | IC50 [1] [µM] | further results
21 | C=C1C=C(C)C=C(C)C(CN(CCCNc2ccnc3cc(Cl)ccc23)Cc2ccccc2)=C1 [SJ000361169-2] | – | IC50 [3]: > 70 µM
22 | Clc1ccc2c(NCCCCN(Cc3ccccc3)CC3CCCCC3)ccnc2c1 [SJ000361194-2] | – | IC50 [3]: > 70 µM
23 | Clc1ccc(CN(CCCCNc2ccnc3cc(Cl)ccc23)Cc2ccccc2)c(Cl)c1 [SJ000361207-2] | – | IC50 [3]: > 70 µM
24 | CCC(C)CN(CCCCNc1ccnc2cc(Cl)ccc12)Cc1ccccc1 (stereo not drawn) [SJ000361208-2] | – | IC50 [3]: > 70 µM
25 | Cc1ccc(C)c(CN(CCCCNc2ccnc3cc(Cl)ccc23)Cc2ccccc2)c1 [SJ000361209-2] | – | IC50 [3]: > 70 µM
26 | CCCN(CCNc1ccnc2cc(C(F)(F)F)ccc12)Cc1ccc[nH]1 [SJ000361255-1] | – | IC50 [3]: > 70 µM
27 | CCCN(CCCNc1ccnc2cc(C(F)(F)F)ccc12)CC1CC1 [SJ000361266-1] | – | IC50 [3]: > 70 µM
28 | CCCN(CCCNc1ccnc2cc(C(F)(F)F)ccc12)CC1CCCCC1 [SJ000361268-1] | – | IC50 [3]: > 70 µM
29 | CCCN(CCCNc1ccnc2cc(C(F)(F)F)ccc12)CC(CC)CC [SJ000361269-1] | – | IC50 [3]: > 70 µM
30 | CCCCCN(CCC)CCCNc1ccnc2cc(C(F)(F)F)ccc12 [SJ000361271-1] | – | IC50 [3]: > 70 µM
31 | COc1ccc(C2=C(c3ccc([N+](=O)[O-])cc3)C(=O)OC2)cc1 [SJ000367280-1] | 69.9 | –
32 | CC(C)(C)c1ccc(C2=C(c3ccc([N+](=O)[O-])cc3)C(=O)OC2)cc1 [SJ000368097-1] | 69.9 | –
33 | CCCc1ccc(C2=C(c3ccc([N+](=O)[O-])cc3)C(=O)OC2)cc1 [SJ000368117-1] | 69.9 | –
34 | CCc1ccc(C2=C(c3ccc([N+](=O)[O-])cc3)C(=O)OC2)cc1 [SJ000368127-1] | 69.9 | –
35 | O=C1OCC(c2ccc(OC(F)F)cc2)=C1c1ccc([N+](=O)[O-])cc1 [SJ000368145-1] | 40.8 | –
36 | O=C1OCC(c2ccc(F)cc2)=C1c1ccc([N+](=O)[O-])cc1 [SJ000368155-1] | 69.9 | –
37 | CCC(C)c1ccc(C2=C(c3ccc([N+](=O)[O-])cc3)C(=O)OC2)cc1 (stereo not drawn) [SJ000368165-1] | 69.9 | –
38 | CCCn1c(-c2ccc(Cl)cc2)nc2c1c(=O)[nH]c(=O)n2Cc1ccccc1 [SJ000375541-1] | 69.9 | –
39 | CCCn1c(-c2ccc(C(C)(C)C)cc2)nc2c1c(=O)[nH]c(=O)n2Cc1ccccc1 [SJ000375920-1] | 69.9 | –
40 | CCCn1c(-c2cccc([N+](=O)[O-])c2)nc2c1c(=O)[nH]c(=O)n2Cc1ccccc1 [SJ000376601-1] | 69.9 | –

Row | Compound | IC50 [1] [µM] | further results
41 | CCCn1c(-c2ccc(OC(F)F)cc2)nc2c1c(=O)[nH]c(=O)n2Cc1ccccc1 [SJ000376621-1] | 69.9 | –
42 | CCCn1c(=O)[nH]c(=O)c2c1nc(-c1ccc(OC(F)F)cc1)n2CCN1CCOCC1 [SJ000377779-1] | 69.9 | –
43 | CCCn1c(=O)[nH]c(=O)c2c1nc(-c1ccc(C(C)(C)C)cc1)n2CCN1CCOCC1 [SJ000377955-1] | 69.9 | –
44 | CCCCn1c(=O)[nH]c(=O)c2c1nc(-c1ccc(CC)c([N+](=O)[O-])c1)n2C [SJ000378868-1] | 69.9 | –
45 | C=CCOc1ccc(-c2nc3c(c(=O)[nH]c(=O)n3CCC)n2CCCC)cc1 [SJ000378878-1] | 69.9 | –
46 | C=CCOc1ccc(-c2nc3c(c(=O)[nH]c(=O)n3Cc3ccccc3)n2CCCOC)cc1 [SJ000378880-1] | 69.9 | –
47 | CCCn1c(=O)[nH]c(=O)c2c1nc(-c1ccc(OC)c(Br)c1)n2CCOC [SJ000378893-1] | 69.9 | –
48 | CCCCCn1c(-c2ccc(F)c(Br)c2)nc2c1c(=O)[nH]c(=O)n2CCCC [SJ000378900-1] | 2.64 | –
49 | CCCCn1c(=O)[nH]c(=O)c2c1nc(-c1ccc(OCC(C)C)c(OCC)c1)n2CC [SJ000378903-1] | 69.9 | –
50 | CCCCn1c(-c2ccc(OCCC)c(OCC)c2)nc2c1c(=O)[nH]c(=O)n2CCC [SJ000378906-1] | 69.9 | –
51 | CCCCn1c(-c2ccc(Cl)cc2)nc2c1c(=O)[nH]c(=O)n2Cc1ccccc1 [SJ000378907-1] | 69.9 | –
52 | CCCCn1c(=O)[nH]c(=O)c2c1nc(-c1ccc(C(F)(F)F)cc1)n2C [SJ000378916-1] | 69.9 | –
53 | COCCn1c(-c2ccc(SC)cc2)nc2c1c(=O)[nH]c(=O)n2CC(C)C [SJ000378917-1] | 69.9 | –
54 | CCCCn1c(=O)[nH]c(=O)c2c1nc(-c1ccc(C)c([N+](=O)[O-])c1)n2CC [SJ000378919-1] | 69.9 | –
55 | CCCn1c(=O)[nH]c(=O)c2c1nc(-c1cccc(F)c1)n2CCOC [SJ000378928-1] | 69.9 | –
56 | CCCCn1c(=O)[nH]c(=O)c2c1nc(-c1ccc([N+](=O)[O-])cc1)n2CC [SJ000378938-1] | 69.9 | –
57 | CCCCn1c(=O)[nH]c(=O)c2c1nc(-c1ccc(OC)c(Br)c1)n2CC(C)C [SJ000378943-1] | 69.9 | –
58 | CCCCn1c(=O)[nH]c(=O)c2c1nc(-c1ccc(OCCC)c(OCC)c1)n2CCOC [SJ000378946-1] | 69.9 | –
59 | CCCCn1c(=O)[nH]c(=O)c2c1nc(-c1ccc(OC(F)(F)C(F)C(F)(F)F)cc1)n2O (stereo not drawn) [SJ000378966-1] | 69.9 | –
60 | Cc1ccc(-c2nc3c(c(=O)[nH]c(=O)n3CC(C)C)n2CC(C)C)cc1[N+](=O)[O-] [SJ000379015-1] | 69.9 | –
